Assay results: patent US11813338B2, “Diagnosing and treating cancer” (The Trustees of the University of Pennsylvania, priority 2013, dated 2023)

Experiments:
[1] = test system: ChoK; test: ChoK activity by 14C-labeled choline uptake, TLC/autoradiography, in MDA-MB-231 cells; type: cell-based, human; settings: for ChoK inhibition (PC production as % control): MDA-MB-231 cells, increasing concentrations, 14 h following 14C-choline addition; for IC50 of ChoK inhibition: relative to positive control MN58b
Experimental: ChoK activity was assessed in triple-negative MDA-MB-231 breast cancer cells and in non-transformed MCF10a breast epithelial cells using ^14C-labeled choline uptake.
MDA-MB-231 cells and non-malignant MCF-10a cells were incubated for 14 hr with JAS239 and analyzed by TLC/autoradiography after ^14C-choline labeling.
MDA-MB-231 cells were incubated with increasing concentrations of JAS239 or JAS240. 14 h following ^14C-choline addition, cells were extracted for TLC/autoradiography analysis. […] MN58b was used as positive control.

[2] = test system: MDA-MB-231 cells; test: Fluorescent confocal microscopy, subcellular localization; type: cell-based, human; settings: 2 μM
Experimental: (§1) Immunofluorescence studies confirmed the specificity of ChoKα binding (FIG. 7). […] Cells were treated with a Rabbit polyclonal antibody to human ChoKα followed by a Texas Red Goat Anti-Rabbit IgG secondary antibody. Confocal images were taken using a Leica DMI6000 B microscope with channels for Texas Red (Ex: 594 nm, Em: 600-630 nm), and JAS239 (Ex: 633 nm, Em: 728-800 nm).

[3] = biological target: T1, ChoK (Homo sapiens, UniProt P35790); test: Choline competition: phosphorylation of 14C-labeled choline with varying choline concentrations; type: cell-based; settings: MDA-MB-231 cells, 2 hr, 10 μM
T1 construct: endogenous in cells; host or cells: MDA-MB-231 (and MCF10a) cells
Experimental: (§2) MDA-MB-231 cells were treated for 2 hr with or without 10 μM JAS239 in the presence of varying concentrations of choline. Autoradiography was used to estimate phosphorylation of ^14C-labeled choline. Fluorimetry was performed under the same cellular conditions for estimation of probe uptake (Excitation 640 nm, Emission 770 nm). These values represent a ratio of JAS239 treated vs. untreated cells, and are reported relative to control.

[4] = test system: MDA-MB-231 cells; test: Fluorimetry of probe uptake in MDA-MB-231 cells; type: cell-based, human
Experimental: MDA-MB-231 cells were incubated with JAS239 and the fluorescence measured (Excitation 640 nm, Emission 770 nm).
as §2

[5] = biological target: T2, human ChoKα (Homo sapiens, UniProt P35790); test: Immunofluorescence study of ChoKα binding specificity; type: cell-based; settings: fixed permeabilized MDA-MB-231 cells, 2 μM, added before or after ChoKα antibody
T2 construct: endogenous in cells; host or cells: MDA-MB-231 cells (fixed, permeabilized)
Experimental: as §1

[6] = test system: MDA-MB-231 tumors; test: In vivo fluorescence distribution in mice bearing MDA-MB-231 tumors; design: species or system athymic nude mice

T1 sequence (P35790 whole entry): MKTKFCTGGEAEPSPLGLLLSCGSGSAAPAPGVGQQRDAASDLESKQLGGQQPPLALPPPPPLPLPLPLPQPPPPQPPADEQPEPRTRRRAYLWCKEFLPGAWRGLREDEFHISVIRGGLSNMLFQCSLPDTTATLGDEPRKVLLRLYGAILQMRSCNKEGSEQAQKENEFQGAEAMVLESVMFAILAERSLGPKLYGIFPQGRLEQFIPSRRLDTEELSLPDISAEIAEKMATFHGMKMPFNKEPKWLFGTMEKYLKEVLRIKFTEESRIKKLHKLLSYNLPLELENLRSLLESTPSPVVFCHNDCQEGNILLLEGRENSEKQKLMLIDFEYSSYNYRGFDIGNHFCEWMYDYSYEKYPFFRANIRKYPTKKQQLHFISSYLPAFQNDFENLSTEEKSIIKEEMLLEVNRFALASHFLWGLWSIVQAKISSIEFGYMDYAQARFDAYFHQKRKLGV
T2 sequence (P35790 whole entry): as above

SMILES | ChoK inhibition (PC production as % control) [1] | IC50 of ChoK inhibition [1] | Subcellular localization [2] | Time by which ChoK inhibition is present [1] [min] | Sensitivity of MDA-MB-231 cells versus non-transformed MCF10a cells ([1]; 14 hr incubation, 14C-choline labeling) | Mode of ChoK inhibition [3] | Time by which cell uptake is detectable [4] [min] | Cell uptake versus exogenous choline concentration ([4]; MDA-MB-231 cells, 10 μM, 2 hr) | Cell uptake versus probe concentration ([4]; MDA-MB-231 cells, Excitation 640 nm, Emission 770 nm) | Specificity of binding to ChoKα [5] | Tissue accumulation of probe fluorescence ([6]; 20 nmol i.v., 15 min post-injection, Ex. 745 nm, Em 800 nm) | Fluorescence in background muscle tissue ([6]; excised tissue, dual CCD fluorescence camera)
CN1\C(=C/C=C/C=C/C=C/C2=[N+](C)c3ccccc3C2(C)C)C(C)(C)c2ccccc21.[I-] [JAS240, 1,3,3-trimethyl-2-((1E,3E,5E)-7-((Z/E)-1,3,3-trimethylindolin-2-ylidene)hepta-1,3,5-trien-1-yl)-3H-indol-1-ium iodide] | ChoK inhibition at physiologically-relevant concentrations | comparable to MN58b | localized to the cytoplasm | – | – | – | – | – | – | – | – | –
CC1(C)C(/C=C/C=C/C=C/C=C2\N(CCO)c3ccccc3C2(C)C)=[N+](CCO)c2ccccc21 [JAS239, 1-(2-hydroxyethyl)-2-((1E,3E,5E)-7-((Z/E)-1-(2-hydroxyethyl)-3,3-dimethylindolin-2-ylidene)hepta-1,3,5-trien-1-yl)-3,3-dimethyl-3H-indol-1-ium chloride] | ChoK inhibition at physiologically-relevant concentrations | comparable to MN58b | co-localizes with the cytosolic expression of ChoK | ≤ 60 | greater sensitivity | competitive inhibitor of ChoK | ≤ 15 | independent of exogenous choline concentration | linearly proportional to concentration | specific to ChoKα | accumulate in the kidneys and tumor | no fluorescence detectable
